Measured values taken from US4966900A, “Cephalosporin β-lactam compound and medicinal composition” (priority 1986, dated 1990).
Converted amounts (≈) assume the structure as drawn. Where a name gives a salt, the structure may show the parent alone.

Tests used:
E. cloacae 1V247 = test: MIC; assay type: cell-based; conditions: Enterobacter cloacae, Table 8
Method: (§1) The minimum inhibition concentrations (MIC) of the compounds obtained in the respective examples described above were measured according to the standard method of Japanese Chemotherapy Association.

S. aureus IAA498 = test: MIC; assay type: cell-based; conditions: Staphylococcus aureus, Table 7
Method: as §1

S. aureus Smith = test: MIC; conditions: Staphylococcus aureus, Table 7
E. coli ML4707 = test: MIC; conditions: Escherichia coli, ML4707, E. coli ML4707; Table 7
E. coli GN5482 = test: MIC; conditions: Escherichia coli, GN5482, E. coli GN5482; Table 7
K. pneumoniae 4at521 = test: MIC; conditions: Klebsiella pneumoniae, 4AT521
E. colacae GN7471 = test: MIC; conditions: Table 7
E. cloacae 908RN = test: MIC; conditions: Enterobacter cloacae, E. colacae 908RN, Table 7
C. freundii GN7391 = test: MIC; conditions: Citrobacter freundii, GN7391, C. freundii GN7391; Table 7
S. marcescens GN10857 = test: MIC; conditions: Serratia marcescens, GN10857, S. marcescens GN10857; Table 7
P. vulgaris GN7919 = test: MIC; conditions: Proteus vulgaris, GN7919
P. aeruginosa GN10362 = test: MIC; conditions: Pseudomonas aeruginosa, GN10362
P. aeruginosa 4au542 = test: MIC; conditions: Pseudomonas aeruginosa, 4AU542, P. aeruginosa 4au542; Table 7
P. aeruginosa 5D58-1 = test: MIC; conditions: Pseudomonas aeruginosa, 5D581, P. aeruginosa 5D58-1; Table 7
P. cepacia OF189 = test: MIC; conditions: Burkholderia cepacia, OF189, P. cepacia OF189; Table 7
P. maltophilia OF247 = test: MIC; conditions: Stenotrophomonas maltophilia, Table 7
E. cloacae 5D52-2 = test: MIC; conditions: Enterobacter cloacae, 5D522
E. cloacae 5D63-2 = test: MIC; conditions: Enterobacter cloacae, 5D632
E. cloacae 1V25 = test: MIC; conditions: Enterobacter cloacae
C. freundii 5D60-1 = test: MIC; conditions: Citrobacter freundii, 5D601
C. freundii 1R523 = test: MIC; conditions: Citrobacter freundii, 1R523
C. freundii 1R524 = test: MIC; conditions: Citrobacter freundii, 1R524
C. freundii 1R526 = test: MIC; conditions: Citrobacter freundii, 1R526
C. freundii 1R527 = test: MIC; conditions: Citrobacter freundii, 1R527
C. freundii 1U589 = test: MIC; conditions: Citrobacter freundii, 1U589
C. freundii 1U692 = test: MIC; conditions: Citrobacter freundii, 1U692
in vivo = test: in vivo; parameters: species or system Macaco; conditions: monkey, 20 mg/kg
Method: Each of 20 mg/kg of the compounds obtained in Example 2, Example 25 and Example 28 was administered parenterally to Macaco and the half-time in blood was measured.
The concentrations of the compounds were measured according to HPLC method. Novapack C18 or Microbondapack C18 (trade name, produced by Waters Co.) was used as a column. Further, cefpiramide was used as a control drug.

Row | Compound | MIC (E. cloacae 1V247) | MIC (S. aureus IAA498) | MIC (S. aureus Smith) | MIC (E. coli ML4707) | MIC (E. coli GN5482) | MIC (K. pneumoniae 4at521) | MIC (E. colacae GN7471) | MIC (E. cloacae 908RN) | MIC (C. freundii GN7391) | MIC (S. marcescens GN10857) | MIC (P. vulgaris GN7919) | MIC (P. aeruginosa GN10362) | MIC (P. aeruginosa 4au542) | MIC (P. aeruginosa 5D58-1) | MIC (P. cepacia OF189) | MIC (P. maltophilia OF247) | MIC (E. cloacae 5D52-2) | MIC (E. cloacae 5D63-2) | MIC (E. cloacae 1V25) | MIC (C. freundii 5D60-1) | other results
1 | CC(=O)Oc1ccc(C(=O)NNC(=O)C(C)(C)ON=C(C(=O)NC2C(=O)N3C(C(=O)O)=C(CSc4cc(C)nc5c(C(=O)O)cnn45)CSC23)c2csc(N)n2)cc1OC(C)=O (centres unmarked) [Example 53, 7-{2-[2-amino-1,3-thiazol-4-yl]-2-[1-(3-(3,4-diacetoxybenzoyl)carbazoyl)-1-methylethoxyimino]acetamido}-3-[(3-carboxy-5-methylpyrazolo[1,5-a]pyrimidin-7-yl)thiomethyl-3-cephem-4-carboxylic acid sodium salt] | 12.5 µg/mL | 12.5 µg/mL | 12.5 µg/mL | 0.012 µg/mL | 0.012 µg/mL | 0.012 µg/mL | 0.78 µg/mL | 0.78 µg/mL | 6.25 µg/mL | 0.78 µg/mL | 1.56 µg/mL | 0.05 µg/mL | 0.05 µg/mL | 0.1 µg/mL | < 0.006 µg/mL | 0.78 µg/mL | 0.1 µg/mL | 0.39 µg/mL | 6.25 µg/mL | 3.13 µg/mL | MIC (C. freundii 1R523): 0.78 µg/mL; MIC (C. freundii 1R524): 0.78 µg/mL; MIC (C. freundii 1R526): 0.78 µg/mL; MIC (C. freundii 1R527): 0.78 µg/mL; MIC (C. freundii 1U589): 3.13 µg/mL; MIC (C. freundii 1U692): 1.56 µg/mL
2 | Cc1cc(O)c(C(=O)N[C@@H](C(=O)N[C@@H]2C(=O)N3C(C(=O)O)=C(CSc4nnnn4C)CS[C@H]23)c2ccc(O)cc2)cn1 [Cefpiramide, cefpiramide, reference compound] | – | – | – | – | – | – | – | – | – | – | – | – | – | – | – | – | – | – | – | – | half-life (in vivo): 2.5 h
3 | Cc1cc(SCC2=C(C(=O)O)N3C(=O)C(NC(=O)C(=NOC(C)(C)C(=O)NNC(=O)c4ccc(O)c(O)c4)c4csc(N)n4)[C@H]3SC2)n2nccc2n1 (some centres unmarked) [Example 58, 7-{2-[2-Amino-1,3-thiazol-4-yl]-2-[1-(3-(3,4-dihydroxybenzoyl)carbazoyl)-1-methylethoxyimino]acetamido}-3-[(5-methylpyrazolo[1,5-a]pyrimidin-7-yl)thiomethyl]-3-cephem-4-carboxylic acid] | 6.25 µg/mL (≈ 7.98 µM) | 3.13 µg/mL (≈ 4 µM) | 1.56 µg/mL (≈ 1.99 µM) | < 0.006 µg/mL | < 0.006 µg/mL | 0.012 µg/mL (≈ 0.0153 µM) | 1.56 µg/mL (≈ 1.99 µM) | 0.39 µg/mL (≈ 0.498 µM) | 3.13 µg/mL (≈ 4 µM) | 1.56 µg/mL (≈ 1.99 µM) | 1.56 µg/mL (≈ 1.99 µM) | 0.1 µg/mL (≈ 0.128 µM) | 0.2 µg/mL (≈ 0.255 µM) | 0.05 µg/mL (≈ 0.0639 µM) | 0.012 µg/mL (≈ 0.0153 µM) | 1.56 µg/mL (≈ 1.99 µM) | 0.1 µg/mL (≈ 0.128 µM) | 0.39 µg/mL (≈ 0.498 µM) | 6.25 µg/mL (≈ 7.98 µM) | 1.56 µg/mL (≈ 1.99 µM) | MIC (C. freundii 1R523): 0.39 µg/mL (≈ 0.498 µM); MIC (C. freundii 1R524): 0.39 µg/mL (≈ 0.498 µM); MIC (C. freundii 1R526): 3.13 µg/mL (≈ 4 µM); MIC (C. freundii 1R527): 1.56 µg/mL (≈ 1.99 µM); MIC (C. freundii 1U589): 3.13 µg/mL (≈ 4 µM); MIC (C. freundii 1U692): 1.56 µg/mL (≈ 1.99 µM)
4 | CC(=O)Oc1ccc(C(=O)NNC(=O)C(C)(C)ON=C(C(=O)NC2C(=O)N3C(C(=O)O)=C(CSc4cc(C)nc5nc(C(=O)O)nn45)CS[C@H]23)c2csc(N)n2)cc1OC(C)=O (some centres unmarked) [Example 45, 7-{2-[2-Amino-1,3-thiazol-4-yl]-2-[1-(3-(3,4-diacetoxybenzoyl)carbazoyl)-1-methylethoxyimino]acetamido}-3-[(2-carboxy-5-methyl-s-triazolo[1,5-a]pyrimidin-7-yl)thiomethyl]-3-cephem-4-carboxylic acid] | 6.25 µg/mL (≈ 6.85 µM) | 25 µg/mL (≈ 27.4 µM) | 12.5 µg/mL (≈ 13.7 µM) | 0.05 µg/mL (≈ 0.0548 µM) | 0.05 µg/mL (≈ 0.0548 µM) | 0.05 µg/mL (≈ 0.0548 µM) | 1.56 µg/mL (≈ 1.71 µM) | 1.56 µg/mL (≈ 1.71 µM) | 12.5 µg/mL (≈ 13.7 µM) | 1.56 µg/mL (≈ 1.71 µM) | 3.13 µg/mL (≈ 3.43 µM) | 0.2 µg/mL (≈ 0.219 µM) | 0.2 µg/mL (≈ 0.219 µM) | 0.1 µg/mL (≈ 0.11 µM) | 0.012 µg/mL (≈ 0.0132 µM) | 1.56 µg/mL (≈ 1.71 µM) | 0.39 µg/mL (≈ 0.428 µM) | 0.78 µg/mL (≈ 0.855 µM) | 6.25 µg/mL (≈ 6.85 µM) | 3.13 µg/mL (≈ 3.43 µM) | MIC (C. freundii 1R523): 0.78 µg/mL (≈ 0.855 µM); MIC (C. freundii 1R524): 0.78 µg/mL (≈ 0.855 µM); MIC (C. freundii 1R526): 1.56 µg/mL (≈ 1.71 µM); MIC (C. freundii 1R527): 3.13 µg/mL (≈ 3.43 µM); MIC (C. freundii 1U589): 3.13 µg/mL (≈ 3.43 µM); MIC (C. freundii 1U692): 1.56 µg/mL (≈ 1.71 µM)
5 | CC(=O)Oc1ccc(C(=O)NNC(=O)C(C)(C)ON=C(C(=O)NC2C(=O)N3C(C(=O)O)=C(CSc4ccnc5nc(C(=O)O)nn45)CS[C@H]23)c2csc(N)n2)cc1OC(C)=O (some centres unmarked) [Example 46, 7-{2-[2-Amino-1,3-thiazol-4-yl]-2-[1-(3-(3,4-diacetoxybenzoyl)carbazoyl)-1-methylethoxyimino]acetamido}-3-[(2-carboxy-s-triazolo[1,5-a]pyrimidin-7-yl)thiomethyl]-3-cephem-4-carboxylic acid] | 25 µg/mL (≈ 27.8 µM) | 25 µg/mL (≈ 27.8 µM) | 12.5 µg/mL (≈ 13.9 µM) | 0.05 µg/mL (≈ 0.0557 µM) | 0.05 µg/mL (≈ 0.0557 µM) | 0.025 µg/mL (≈ 0.0278 µM) | 0.78 µg/mL (≈ 0.869 µM) | 12.5 µg/mL (≈ 13.9 µM) | 100 µg/mL (≈ 111 µM) | 0.78 µg/mL (≈ 0.869 µM) | 12.5 µg/mL (≈ 13.9 µM) | 0.2 µg/mL (≈ 0.223 µM) | 0.39 µg/mL (≈ 0.434 µM) | 0.2 µg/mL (≈ 0.223 µM) | < 0.006 µg/mL | 0.78 µg/mL (≈ 0.869 µM) | 0.39 µg/mL (≈ 0.434 µM) | 5.25 µg/mL (≈ 5.85 µM) | 25 µg/mL (≈ 27.8 µM) | 12.5 µg/mL (≈ 13.9 µM) | MIC (C. freundii 1R523): 3.13 µg/mL (≈ 3.49 µM); MIC (C. freundii 1R524): 3.13 µg/mL (≈ 3.49 µM); MIC (C. freundii 1R526): 3.13 µg/mL (≈ 3.49 µM); MIC (C. freundii 1R527): 3.13 µg/mL (≈ 3.49 µM); MIC (C. freundii 1U589): 6.25 µg/mL (≈ 6.96 µM); MIC (C. freundii 1U692): 6.25 µg/mL (≈ 6.96 µM)
6 | CC(=O)Oc1ccc(C(=O)NNC(=O)C(C)(C)ON=C(C(=O)NC2C(=O)N3C(C(=O)O)=C(CSc4cc(C)nc5nc(C(F)(F)F)nn45)CS[C@H]23)c2csc(N)n2)cc1OC(C)=O (some centres unmarked) [Example 48, 7-{2-[2-Amino-1,3-thiazol-4-yl]-2-[1-(3-(3,4-diacetoxybenzoyl)carbazoyl)-1-methylethoxyimino]acetamido}-3-[(5-methyl-2-trifluoromethyl-s-triazolo[1,5-a]pyrimidin-7-yl)-thiomethyl]-3-cephem-4-carboxylic acid] | 50 µg/mL (≈ 53.4 µM) | 12.5 µg/mL (≈ 13.4 µM) | 6.25 µg/mL (≈ 6.68 µM) | 0.1 µg/mL (≈ 0.107 µM) | 0.05 µg/mL (≈ 0.0534 µM) | 0.1 µg/mL (≈ 0.107 µM) | 12.5 µg/mL (≈ 13.4 µM) | 3.13 µg/mL (≈ 3.34 µM) | 12.5 µg/mL (≈ 13.4 µM) | 12.5 µg/mL (≈ 13.4 µM) | 3.13 µg/mL (≈ 3.34 µM) | 0.78 µg/mL (≈ 0.833 µM) | 1.56 µg/mL (≈ 1.67 µM) | 0.78 µg/mL (≈ 0.833 µM) | < 0.006 µg/mL | 12.5 µg/mL (≈ 13.4 µM) | 1.56 µg/mL (≈ 1.67 µM) | 1.56 µg/mL (≈ 1.67 µM) | 50 µg/mL (≈ 53.4 µM) | 12.5 µg/mL (≈ 13.4 µM) | MIC (C. freundii 1R523): 0.78 µg/mL (≈ 0.833 µM); MIC (C. freundii 1R524): 0.78 µg/mL (≈ 0.833 µM); MIC (C. freundii 1R526): 12.5 µg/mL (≈ 13.4 µM); MIC (C. freundii 1R527): 25 µg/mL (≈ 26.7 µM); MIC (C. freundii 1U589): 12.5 µg/mL (≈ 13.4 µM); MIC (C. freundii 1U692): 12.5 µg/mL (≈ 13.4 µM)
